Laboratory results from US5491151A, “Antitumor treatment method” (Kabushiki Kaisha Hayashibara Seibutsu Kagaku Kenkyujo, priority 1989, dated 1996).

How the values were obtained:
[1] = system: macrophage; test: Activation of macrophage by cyanine dye (adherent ascites cells of treated mice cultured with Meth A ascitic tumor cells, 3H-thymidine incorporation); type: cell-based, BALB/c mice; conditions: 50 ng/0.2 ml/animal intraperitoneal to mice, cells collected two days later
Description: Two days after the administration, the ascites of the mice were extracted, and the cells which adhered onto plastic Petri dish were collected.
Control group was intraperitoneally administered with 0.2 ml saline.
Thereafter, the incorporation of ^3 H-thymidine in the tumor cell was determined by conventional method, and the growth inhibitory rate for tumor (%) was calculated with the following equation.

[2] = system: Meth A ascitic tumor cell; test: Antitumor effect on tumor-bearing mouse (life-span increasing effect, Meth A ascitic tumor); type: in vivo, BALB/c mice; conditions: for Mean survival days: i.p. twice a week over 40 days, * significant to control at 5% or lower; for Increase in life-span (T/C %) / Survivals after 40 days: i.p.; for Increase in life-span (T/C %): control = 100; for Survivals after 40 days: group of seven mice
Description: Compounds No.1, 7 and 8 in Table I were evaluated for their antitumor activity using as the criterion the life-span increasing effect on tumor-bearing mice which had received the transplantation of Meth A ascitic tumor cell.
More particularly, 8 week-old male BALB/c mice were intraperitoneally transplanted with 1×10^5 cells/mouse of Meth A cell. Ten days after the transplantation, a group of seven mice with a successful transplantation were intraperitoneally administered with either Compound No.1, 7 or 8 in Table I twice a week over a period of 40 days while monitoring the mice.
Control group was intraperitoneally administered with 0.2 ml saline in accordance with the same administration schedule.
The rate of increase in life-span (T/C %) under the above conditions was calculated from the mean survival days found for the test group (T) and control group (C). [formula]

[3] = system: MC-1 cell; test: Antitumor effect by growth inhibition of tumor (MC-1, with or without light-irradiation); type: in vivo, C57BL/6 mice; conditions: for Mean wet weight of tumor: 27th day, * significant at 5% or lower; for Rate of survival (%): 35th day
Description: Compounds No.1, 7 and 8 in Table I were evaluated for their antitumor activity using as the criterion the growth inhibitory effect on MC-1 cell, a methylcholanthrene-induced syngenic tumor.
Eight week-old female C57BL/6 mice were subcutaneously transplanted in their dorsum area with 1×10^5 cells/animal of MC-1 cell. Five days after the transplantation, a group of seven mice with a successful transplantation were subcutaneously administered with either Compound No.1, 7 or 8 in Table I twice a week over a period of 25 days while monitoring the mice.
One another group of mice were light-irradiated with 100 W medical infrared lamp (100 V) placed about one meter in apart immediately after every administration of either Compound No.1, 7 or 8.
Control group was subcutaneously administered with 0.2 ml saline in accordance with the same administration schedule.
On the 27th day after the transplantation, the wet weight of tumor was determined by the method in Y. Shimosato and N. Tamaoki, Human Cancer and Nude mice, pp. 321-323, published by Ishiyaku Publishers Inc., Tokyo, Japan (1982), as well as monitoring the rate (%) of survivals on the 35th day.

[4] = system: Meth A ascitic tumor; test: Synergistic effect by the combination with hyperthermia (growth inhibition of Meth A tumor); type: in vivo, BALB/c mice; conditions: 20 ng/0.1 ml/animal s.c. twice a week; for Mean wet weight of tumor: 40th day; for Growth inhibitory rate for tumor (%): control = 100
Description: More particularly, 6 week-old BALB/c mice were subcutaneously transplanted in their femoral area with 2×10^5 cells/animal of Meth A cell. […] Immediately after every administration, the tumoral sites of the mice were soaked in about 42° C. water bath for about 60 minutes. On the 40th day after the transplantation, the mean wet weight of tumor was determined by the method in Experiment 2-2.
Separately, one of other groups was administered with either cyanine dye, and determined for its mean wet weight of tumor, while one another group was first administered with saline, then subjected to hyperthermia, followed by determining the mean wet weight of tumor.
Control group was subcutaneously injected with 0.1 ml saline in the femoral area.
The mean wet weights of tumor were put into the following equation to calculate the growth inhibitory rate for tumor (%) which was then used to evaluate any synergistic effect by the combination of cyanine dye and hyperthermia. [formula]

[5] = Acute toxicity (LD50); type: in vivo; conditions: mouse, in vivo, 7 days
Description: (§1) Either of Compounds No.1-8 in Table I was dissolved or suspended in saline containing 5% gum arabic, and a group of ddy mice, about 10-20 g each, received an intraperitoneal or oral administration of the resultant mixture occasionally through a stomach tube, followed by monitoring and counting dead mice for an additional 7 days to determine respective LD50 value in accordance with the Van der Waerden's method.

[6] = system: ddy mice; test: Acute toxicity (LD50); type: in vivo; conditions: 7 days
Description: as §1

[7] = 0.5 ng/0.2 ml/animal s.c., combined with light-irradiation
[8] = 0.5 ng/0.2 ml/animal s.c., no light-irradiation
[9] = 5 ng/0.2 ml/animal s.c., combined with light-irradiation
[10] = 5 ng/0.2 ml/animal s.c., no light-irradiation
[11] = 50 ng/0.2 ml/animal s.c., combined with light-irradiation
[12] = 50 ng/0.2 ml/animal s.c., no light-irradiation
[13] = combined with hyperthermia (about 42° C., 60 minutes)
[14] = ip, intraperitoneal administration
[15] = intraperitoneal administration, 10080 min

Structure (SMILES) | Growth inhibitory rate (%) [1] | Mean survival days ([2]; 0.5 ng/0.2 ml/animal) | Increase in life-span (T/C %) ([2]; 0.5 ng/0.2 ml/animal) | Survivals after 40 days ([2]; 0.5 ng/0.2 ml/animal) | Mean survival days ([2]; 5 ng/0.2 ml/animal) | Increase in life-span (T/C %) ([2]; 5 ng/0.2 ml/animal) | Survivals after 40 days ([2]; 5 ng/0.2 ml/animal) | Mean survival days ([2]; 50 ng/0.2 ml/animal) | Increase in life-span (T/C %) ([2]; 50 ng/0.2 ml/animal) | Survivals after 40 days ([2]; 50 ng/0.2 ml/animal) | Mean wet weight of tumor [3, 7] | Rate of survival (%) [3, 7] | Mean wet weight of tumor [3, 8] | Rate of survival (%) [3, 8] | Mean wet weight of tumor [3, 9] | Rate of survival (%) [3, 9] | LD50 at 168 h [5, 14] | LD50 at 168 h ([5]; po, oral administration) | LD50 [6, 15] | LD50 ([6]; oral administration) | other results
CCCCN1C=CC(=CC=C(C=Cc2cc[n+](CCCC)c3ccccc23)c2cc[n+](CCCC)c3ccccc23)c2ccccc21 | 37.6% | 31.1 ± 4.2 days | 105% | 0 | 42.9 ± 6.0 days | 145% | 5 | 39.9 ± 5.4 days | 135% | 4 | 3.3 ± 0.6 g | 85.7% | 4.7 ± 1.0 g | 71.4% | 1.9 ± 0.8 g | 100% | 84 mg/kg | ≥ 4000 mg/kg |  |  | Mean wet weight of tumor [3, 10]: 3.5 ± 0.8 g; Rate of survival (%) [3, 10]: 100%; Mean wet weight of tumor [3, 11]: 2.6 ± 0.5 g; Rate of survival (%) [3, 11]: 100%; Mean wet weight of tumor [3, 12]: 4.0 ± 0.4 g; Rate of survival (%) [3, 12]: 85.7%; Mean wet weight of tumor [4, 13]: 0.62 ± 0.45 g; Growth inhibitory rate for tumor (%) ([4]; combined with hyperthermia): 12.6%; Mean wet weight of tumor ([4]; no hyperthermia): 3.35 ± 1.75 g; Growth inhibitory rate for tumor (%) ([4]; no hyperthermia): 68.2%
CCN1C=CC(=CC=C(C=Cc2cc[n+](CC)c3ccccc23)c2cc[n+](CC)c3ccccc23)c2ccccc21 [Compound No.1, [bis-4-(ethylquinoline)][γ-4'-(1-ethylquinoline)] pentamethine cyanine diiodide] | 25.1% | 36.1 ± 4.3 days | 122% | 2 | 48.9 ± 4.2 days | 165% | 7 | 45.6 ± 4.2 days | 154% | 6 | 2.8 ± 0.3 g | 100% | 4.1 ± 0.5 g | 85.7% | 0.8 ± 0.1 g | 100% | 34 mg/kg | ≥ 4000 mg/kg |  |  | Mean wet weight of tumor [3, 10]: 3.1 ± 0.4 g; Rate of survival (%) [3, 10]: 100%; Mean wet weight of tumor [3, 11]: 1.5 ± 0.3 g; Rate of survival (%) [3, 11]: 100%; Mean wet weight of tumor [3, 12]: 3.7 ± 0.2 g; Rate of survival (%) [3, 12]: 100%; Mean wet weight of tumor [4, 13]: 0.12 ± 0.15 g; Growth inhibitory rate for tumor (%) ([4]; combined with hyperthermia): 2.4%; Mean wet weight of tumor ([4]; no hyperthermia): 3.24 ± 1.45 g; Growth inhibitory rate for tumor (%) ([4]; no hyperthermia): 65.9%
CN1C(=CC=C(C=Cc2sc3ccccc3[n+]2C)c2sc3ccccc3[n+]2C)Sc2ccccc21 [Compound No.8] | 27.3% | 34.4 ± 5.7 days | 116% | 1 | 49.3 ± 5.6 days | 167% | 7 | 43.7 ± 4.0 days | 148% | 6 | 2.9 ± 0.7 g | 100% | 3.6 ± 0.4 g | 71.4% | 0.5 ± 0.5 g | 100% | 40 mg/kg | ≥ 4000 mg/kg |  |  | Mean wet weight of tumor [3, 10]: 2.9 ± 0.9 g; Rate of survival (%) [3, 10]: 100%; Mean wet weight of tumor [3, 11]: 1.2 ± 0.2 g; Rate of survival (%) [3, 11]: 100%; Mean wet weight of tumor [3, 12]: 3.5 ± 0.5 g; Rate of survival (%) [3, 12]: 85.7%; Mean wet weight of tumor [4, 13]: 0.90 ± 0.66 g; Growth inhibitory rate for tumor (%) ([4]; combined with hyperthermia): 18.3%; Mean wet weight of tumor ([4]; no hyperthermia): 3.40 ± 1.38 g; Growth inhibitory rate for tumor (%) ([4]; no hyperthermia): 69.2%
CCN1C=CC(=CC=C(C=Cc2cc[n+](CC)c3ccccc23)c2cc[n+](CC)c3ccccc23)c2ccccc21 [compound 2] | 44.5% |  |  |  |  |  |  |  |  |  |  |  |  |  |  |  |  |  | 30 mg/kg body weight | ≥ 4.0 g/kg body weight | 
CCN1C=CC(=CC=C(C=Cc2cc[n+](CC)c3ccccc23)c2cc[n+](CC)c3ccccc23)c2ccccc21 [compound 3] | 32.3% |  |  |  |  |  |  |  |  |  |  |  |  |  |  |  |  |  | 31 mg/kg body weight | ≥ 4.0 g/kg body weight | 
CCN1C=CC(=CC=C(C=Cc2cc[n+](CC)c3ccccc23)c2cc[n+](CC)c3ccccc23)c2ccccc21 [compound 4] | 36.2% |  |  |  |  |  |  |  |  |  |  |  |  |  |  |  |  |  | 37 mg/kg body weight | ≥ 4.0 g/kg body weight | 
CCN1C=CC(=CC=C(C=Cc2cc[n+](CC)c3ccccc23)c2cc[n+](CC)c3ccccc23)c2ccccc21 [compound 5] | 27.5% |  |  |  |  |  |  |  |  |  |  |  |  |  |  |  |  |  | 28 mg/kg body weight | ≥ 4.0 g/kg body weight | 
CN1C=CC(=CC=C(C=Cc2cc[n+](C)c3ccccc23)c2cc[n+](C)c3ccccc23)c2ccccc21 [compound 6] | 41.8% |  |  |  |  |  |  |  |  |  |  |  |  |  |  |  | 65 mg/kg | ≥ 4000 mg/kg |  |  | 
